Results taken from ChEMBL document CHEMBL1177809, “Motualevic acids and analogs: synthesis and antimicrobial structure-activity relationships” (2010).
Converted amounts (≈) assume the structure as drawn. The source made the active and inactive calls. The rule behind the calls is not given here.

Key:
Staphylococcus aureus [1] = assay: Antibacterial activity against methicillin-resistant Staphylococcus aureus by microbroth dilution assay; type: functional
Enterococcus [2] = assay: Antibacterial activity against vancomycin-resistant Enterococcus at 50 ug/disk by agar disk diffusion assay; type: functional, organism-based
Staphylococcus aureus [3] = assay: Antibacterial activity against Staphylococcus aureus at 50 ug/disk by agar disk diffusion assay; type: functional; conditions: for zone of inhibition at 50 µg/disc: read-out: IZ
Staphylococcus aureus [4] = assay: Antibacterial activity against Staphylococcus aureus by microbroth dilution assay; type: functional
Enterococcus [5] = assay: Antibacterial activity against vancomycin-resistant Enterococcus by microbroth dilution assay; type: functional
Enterococcus faecium [6] = assay: Antibacterial activity against Enterococcus faecium at 50 ug/disk by agar disk diffusion assay; type: functional, organism-based
Enterococcus faecium [7] = assay: Antibacterial activity against Enterococcus faecium by microbroth dilution assay; type: functional
Staphylococcus aureus [8] = assay: Antibacterial activity against Staphylococcus aureus at 25 ug/disk by agar disk diffusion assay; type: functional; conditions: read-out: IZ
Enterococcus [9] = assay: Antibacterial activity against vancomycin-resistant Enterococcus at 25 ug/disk by agar disk diffusion assay; type: functional; conditions: read-out: IZ
Staphylococcus aureus [10] = assay: Antibacterial activity against methicillin-resistant Staphylococcus aureus at 25 ug/disk by agar disk diffusion assay; type: functional; conditions: read-out: IZ
Enterococcus faecium [11] = assay: Antibacterial activity against Enterococcus faecium at 25 ug/disk by agar disk diffusion assay; type: functional; conditions: read-out: IZ
Enterococcus [12] = assay: Antibacterial activity against vancomycin-resistant Enterococcus at 10 ug/disk by agar disk diffusion assay; type: functional; conditions: read-out: IZ
Staphylococcus aureus [13] = assay: Antibacterial activity against methicillin-resistant Staphylococcus aureus at 10 ug/disk by agar disk diffusion assay; type: functional; conditions: read-out: IZ
Staphylococcus aureus [14] = assay: Antibacterial activity against Staphylococcus aureus at 10 ug/disk by agar disk diffusion assay; type: functional; conditions: read-out: IZ
Enterococcus faecium [15] = assay: Antibacterial activity against Enterococcus faecium at 5 ug/disk by agar disk diffusion assay; type: functional; conditions: read-out: IZ
Enterococcus [16] = assay: Antibacterial activity against vancomycin-resistant Enterococcus at 5 ug/disk by agar disk diffusion assay; type: functional; conditions: read-out: IZ
Staphylococcus aureus [17] = assay: Antibacterial activity against methicillin-resistant Staphylococcus aureus at 50 ug/disk by agar disk diffusion assay; type: functional; conditions: for zone of inhibition at 50 µg/disc: read-out: IZ
Enterococcus faecium [18] = assay: Antibacterial activity against Enterococcus faecium at 10 ug/disk by agar disk diffusion assay; type: functional; conditions: read-out: IZ

Row | SMILES | MIC (Staphylococcus aureus [1]) | inhibition zone (IZ) (Staphylococcus aureus [3]) | MIC (Staphylococcus aureus [4]) | MIC (Enterococcus [5]) | MIC (Enterococcus faecium [7]) | zone of inhibition at 25 µg/disc (Staphylococcus aureus [8]) | zone of inhibition at 25 µg/disc (Enterococcus [9]) | zone of inhibition at 25 µg/disc (Staphylococcus aureus [10]) | zone of inhibition at 25 µg/disc (Enterococcus faecium [11]) | inhibition zone (IZ) (Staphylococcus aureus [17]) | other results
1 | O=C(O)C[C@H](NC(=O)/C=C/CCCCCCCCCC=C(Br)Br)C(=O)O | inactive | inactive | inactive | inactive | inactive | – | – | – | – | – | inhibition zone (IZ) (Enterococcus [2]): inactive; inhibition zone (IZ) (Enterococcus faecium [6]): inactive
2 | O=C(O)[C@H]1CCCN1C(=O)/C=C/CCCCCCCCCC=C(Br)Br | 19 µg/mL (≈ 39.6 µM) | – | 18 µg/mL (≈ 37.6 µM) | 11 µg/mL (≈ 23 µM) | 15 µg/mL (≈ 31.3 µM) | 8 mm | 8 mm | 8 mm | 8 mm | – | zone of inhibition at 10 µg/disc (Enterococcus [12]): 8 mm
3 | C[N+](C)(C)CCNC(=O)/C=C/CCCCCCCCCC=C(Br)Br.[Cl-] | 4.2 µg/mL | – | 2.4 µg/mL | 5.2 µg/mL | 3.7 µg/mL | – | 8 mm | – | 8 mm | – | zone of inhibition at 10 µg/disc (Staphylococcus aureus [13]): 8 mm; zone of inhibition at 10 µg/disc (Staphylococcus aureus [14]): 8 mm
4 | O=C(/C=C/CCCCCCCCCC=C(Br)Br)N[C@@H](Cc1ccccc1)C(=O)O | 4.4 µg/mL (≈ 8.31 µM) | inactive | 5 µg/mL (≈ 9.45 µM) | 2.9 µg/mL (≈ 5.48 µM) | 6.3 µg/mL (≈ 11.9 µM) | – | – | – | – | – | zone of inhibition at 5 µg/disc (Enterococcus faecium [15]): 8 mm; zone of inhibition at 5 µg/disc (Enterococcus [16]): 8 mm; zone of inhibition at 50 µg/disc (Staphylococcus aureus [17]): 8 mm
5 | CC(C)C[C@H](NC(=O)/C=C/CCCCCCCCCC=C(Br)Br)C(=O)O | 2.9 µg/mL (≈ 5.86 µM) | – | 2.3 µg/mL (≈ 4.64 µM) | 3.7 µg/mL (≈ 7.47 µM) | 6.4 µg/mL (≈ 12.9 µM) | 8 mm | – | 8 mm | – | – | zone of inhibition at 5 µg/disc (Enterococcus [16]): 8 mm; zone of inhibition at 10 µg/disc (Enterococcus faecium [18]): 8 mm
6 | O=C(O)CCCCCCCNC(=O)/C=C/CCC=C(Br)Br | – | – | – | – | – | 8 mm | – | 8 mm | – | – | –
7 | CCCCCCCCC/C=C/C(=O)NCC(=O)O | – | inactive | – | – | – | – | – | – | – | inactive | –
8 | O=C(O)[C@@H]1C[C@H](O)CN1C(=O)/C=C/CCCCCCCCCC=C(Br)Br | – | inactive | – | – | – | – | 8 mm | 8 mm | 8 mm | – | –
9 | O=C(O)CNC(=O)/C=C/CCCCCCCC=C(Br)Br | – | – | – | – | – | – | – | – | – | – | zone of inhibition at 50 µg/disc (Staphylococcus aureus [3]): 8 mm; zone of inhibition at 50 µg/disc (Staphylococcus aureus [17]): 8 mm
10 | O=C(O)/C=C/CCCCCCCCCC=C(Br)Br [MOTUALEVIC ACID E] | – | – | – | – | – | – | – | – | – | inactive | zone of inhibition at 50 µg/disc (Staphylococcus aureus [3]): 8 mm
11 | O=C(O)[C@@H]1CCCN1C(=O)/C=C/CCCCCCCCCC=C(Br)Br | 9 µg/mL (≈ 18.8 µM) | – | 10 µg/mL (≈ 20.9 µM) | 12 µg/mL (≈ 25 µM) | 10 µg/mL (≈ 20.9 µM) | 8 mm | – | – | 8 mm | – | zone of inhibition at 10 µg/disc (Staphylococcus aureus [13]): 8 mm; zone of inhibition at 5 µg/disc (Enterococcus [16]): 8 mm
12 | O=C(O)CN(CC(=O)O)C(=O)/C=C/CCCCCCCCCC=C(Br)Br | inactive | – | inactive | inactive | inactive | – | – | – | – | – | inhibition zone (IZ) (Enterococcus [2]): inactive; zone of inhibition at 50 µg/disc (Staphylococcus aureus [3]): 8 mm; zone of inhibition at 50 µg/disc (Staphylococcus aureus [17]): 8 mm; inhibition zone (IZ) (Enterococcus faecium [6]): inactive
13 | O=C(O)CNC(=O)/C=C/CCC=C(Br)Br | – | inactive | – | – | – | – | – | – | – | inactive | –
14 | O=C(O)CCNC(=O)/C=C/CCCCCCCCCC=C(Br)Br | 3.3 µg/mL (≈ 7.28 µM) | – | 3.6 µg/mL (≈ 7.94 µM) | 12 µg/mL (≈ 26.5 µM) | 11 µg/mL (≈ 24.3 µM) | – | 8 mm | – | 8 mm | – | zone of inhibition at 10 µg/disc (Staphylococcus aureus [13]): 8 mm; zone of inhibition at 10 µg/disc (Staphylococcus aureus [14]): 8 mm; zone of inhibition at 10 µg/disc (Enterococcus [12]): 8 mm
15 | O=C(/C=C/CCCCCCCCCC=C(Br)Br)N[C@H](C(=O)O)c1ccccc1 | 21 µg/mL (≈ 40.8 µM) | – | 17 µg/mL (≈ 33 µM) | 22 µg/mL (≈ 42.7 µM) | 25 µg/mL (≈ 48.5 µM) | 8 mm | 8 mm | 8 mm | – | – | zone of inhibition at 10 µg/disc (Enterococcus [12]): 8 mm; zone of inhibition at 10 µg/disc (Enterococcus faecium [18]): 8 mm
16 | CN(C)C(=O)CNC(=O)/C=C/CCCCCCCCCC=C(Br)Br | – | inactive | – | – | – | – | – | – | – | inactive | –
17 | O=C(O)CCCNC(=O)/C=C/CCCCCCCCCC=C(Br)Br | 2.4 µg/mL (≈ 5.14 µM) | – | 2.5 µg/mL (≈ 5.35 µM) | 8.5 µg/mL (≈ 18.2 µM) | 11 µg/mL (≈ 23.5 µM) | 8 mm | 8 mm | 8 mm | – | – | zone of inhibition at 10 µg/disc (Enterococcus [12]): 8 mm; zone of inhibition at 10 µg/disc (Enterococcus faecium [18]): 8 mm
18 | O=C(O)CNC(=O)/C=C/CCCCCCCCCC=C(Br)Br [MOTUALEVIC ACID A] | 9.3 µg/mL (≈ 21.2 µM) | – | 11 µg/mL (≈ 25 µM) | 12 µg/mL (≈ 27.3 µM) | 9.3 µg/mL (≈ 21.2 µM) | – | 8 mm | – | 8 mm | – | zone of inhibition at 10 µg/disc (Staphylococcus aureus [13]): 8 mm; zone of inhibition at 10 µg/disc (Staphylococcus aureus [14]): 8 mm; zone of inhibition at 10 µg/disc (Enterococcus [12]): 8 mm
19 | NC(=O)CNC(=O)/C=C/CCCCCCCCCC=C(Br)Br | – | inactive | – | – | – | – | – | – | – | inactive | –
20 | CCC/C=C/C(=O)NCC(=O)O | – | inactive | – | – | – | – | – | – | – | inactive | –
